Assay results as given in ChEMBL document CHEMBL1140420, “Synthesis of tricyclic 1,3-oxazin-4-ones and kinetic analysis of cholesterol esterase and acetylcholinesterase inhibition” (J Med Chem, 2005).

Experiments:
[1] = target: T1, Bile salt-activated lipase (Bos taurus, UniProt P30122)
T1 sequence (P30122 whole entry): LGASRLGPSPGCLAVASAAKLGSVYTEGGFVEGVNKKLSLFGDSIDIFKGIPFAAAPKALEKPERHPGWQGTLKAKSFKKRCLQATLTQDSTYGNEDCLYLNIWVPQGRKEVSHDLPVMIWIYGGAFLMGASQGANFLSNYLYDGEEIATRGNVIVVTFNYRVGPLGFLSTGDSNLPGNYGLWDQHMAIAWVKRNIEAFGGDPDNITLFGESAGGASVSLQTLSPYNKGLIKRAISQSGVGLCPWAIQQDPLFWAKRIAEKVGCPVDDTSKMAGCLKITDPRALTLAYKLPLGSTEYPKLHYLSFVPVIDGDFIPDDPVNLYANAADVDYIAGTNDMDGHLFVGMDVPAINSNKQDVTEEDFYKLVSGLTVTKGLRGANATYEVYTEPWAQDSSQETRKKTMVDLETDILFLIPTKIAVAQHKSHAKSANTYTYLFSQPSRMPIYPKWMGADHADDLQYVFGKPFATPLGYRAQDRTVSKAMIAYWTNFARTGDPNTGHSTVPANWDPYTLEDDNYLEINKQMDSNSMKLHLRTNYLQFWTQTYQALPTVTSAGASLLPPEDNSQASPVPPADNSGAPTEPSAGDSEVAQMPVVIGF
Description: Inhibitory activity against bovine pancreatic CEase in presence of pNPB chromogenic substrate by spectrophotometry

Acetylcholinesterase = Acetylcholinesterase (Electrophorus electricus, UniProt O42275)
Acetylcholinesterase, sequence (O42275 whole entry): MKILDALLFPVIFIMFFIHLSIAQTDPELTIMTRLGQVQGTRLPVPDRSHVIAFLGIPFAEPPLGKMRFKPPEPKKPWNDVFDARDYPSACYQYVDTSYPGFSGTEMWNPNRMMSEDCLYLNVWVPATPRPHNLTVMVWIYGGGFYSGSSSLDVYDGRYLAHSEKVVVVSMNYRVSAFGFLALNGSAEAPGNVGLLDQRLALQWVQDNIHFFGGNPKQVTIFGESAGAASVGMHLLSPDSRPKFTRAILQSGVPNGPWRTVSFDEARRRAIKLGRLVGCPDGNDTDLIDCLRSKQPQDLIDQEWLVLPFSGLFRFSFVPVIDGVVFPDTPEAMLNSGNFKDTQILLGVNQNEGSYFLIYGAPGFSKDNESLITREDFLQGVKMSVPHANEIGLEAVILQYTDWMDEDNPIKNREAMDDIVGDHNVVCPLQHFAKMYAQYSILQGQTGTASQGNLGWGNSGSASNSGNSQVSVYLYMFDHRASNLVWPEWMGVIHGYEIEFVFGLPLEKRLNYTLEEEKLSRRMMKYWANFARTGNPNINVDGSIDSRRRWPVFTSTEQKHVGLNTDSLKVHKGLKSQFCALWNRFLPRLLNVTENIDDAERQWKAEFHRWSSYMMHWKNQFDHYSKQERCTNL
Description: Inhibitory activity AChE from Electrophorus electricus using ATCh substrate and DTNB by spectrophotometry

Row | Structure (SMILES) | Ki [1] [µM] | IC50 (Acetylcholinesterase) [µM] | Ki (Acetylcholinesterase) [µM]
1 | O=c1oc(N2CCOCC2)nc2sc3c(c12)CCN(Cc1ccccc1)C3 | > 50 | 0.77 | 
2 | CCN1CCc2c(sc3nc(N(C)C)oc(=O)c23)C1 | > 50 | 10.5 | 
3 | CN(C)c1nc2sc3c(c2c(=O)o1)CCSC3 | 5.76 | > 50 | 
4 | CC(C)CN1CCc2c(sc3nc(N(C)C)oc(=O)c23)C1 | > 50 | 0.36 | 0.66
5 | CN(C)c1nc2sc3c(c2c(=O)o1)CCN(Cc1ccccc1)C3 | > 50 | 0.89 | 1.7
6 | O=c1oc(N2CCN(Cc3ccccc3)CC2)nc2sc3c(c12)CCN(Cc1ccccc1)C3 | > 50 | 1.32 | 
7 | CN1CCc2c(sc3nc(N(C)C)oc(=O)c23)C1 | > 50 | 38.9 | 
8 | Nc1nc2sc3c(c2c(=O)s1)CCN(Cc1ccccc1)C3 | > 50 | 1.2 | 
9 | CC(C)Nc1nc2sc3c(c2c(=O)o1)CCN(Cc1ccccc1)C3 | > 50 | 0.74 | 
10 | CN(C)c1nc2sc3c(c2c(=O)o1)CCN(C(=O)c1ccccc1)C3 | > 50 | 35.6 | 
11 | O=c1oc(NC2CCCCC2)nc2sc3c(c12)CCN(Cc1ccccc1)C3 | > 50 |  | 
12 | CC(C)Nc1nc2sc3c(c2c(=O)s1)CCN(Cc1ccccc1)C3 | > 50 | 0.58 | 
13 | CCN(CC)c1nc2sc3c(c2c(=O)o1)CCC3 | 0.58 | > 50 | 
14 | CCN(CC)c1nc2sc3c(c2c(=O)o1)C(C)CCC3 (stereo not drawn) | 1.64 | > 50 | 
15 | CCN(CC)c1nc2scc(C)c2c(=O)o1 | 15 | > 50 | 
16 | CCN(CC)c1nc2sc3ccccc3c2c(=O)o1 | 7.5 | > 50 | 
17 | CCN(CC)c1nc2sc(C(N)=O)c(C)c2c(=O)o1 | > 50 | > 50 | 
18 | O=c1sc(NC2CCCCC2)nc2sc3c(c12)CCN(Cc1ccccc1)C3 | > 50 | 2.82 | 

Row | Structure (SMILES) | Ki [1] [µM] | IC50 (Acetylcholinesterase) [µM] | Ki (Acetylcholinesterase) [µM]
19 | O=c1sc(Nc2ccccc2)nc2sc3c(c12)CCN(Cc1ccccc1)C3 | > 50 | 1.03 | 
20 | O=C(Nc1nc2sc3c(c2c(=O)o1)CCN(Cc1ccccc1)C3)c1ccccc1 | > 50 | 2.86 | 
21 | O=C(Nc1nc2sc3c(c2c(=O)s1)CCN(Cc1ccccc1)C3)c1ccccc1 | > 50 | 5.2 | 
22 | COc1ccc(CN(C)c2nc3sc4c(c3c(=O)o2)CCN(Cc2ccccc2)C4)cc1OC | > 50 | 0.33 | 
23 | CN(C)c1nc2sc3c(c2c(=O)o1)CCOC3 | > 50 | > 50 | 
24 | CN(C)c1nc2sc3c(c2c(=O)o1)CCC3 | 0.63 | > 50 | 
25 | CCN(CC)c1nc2sc3c(c2c(=O)o1)CCCC3 | 1.86 | > 50 | 
26 | O=c1oc(N2CCOCC2)nc2sc3c(c12)CCCC3 | 5.7 | > 50 | 
27 | Nc1nc2sc3c(c2c(=O)o1)CCN(Cc1ccccc1)C3 | > 50 | 5.9 | 
28 | CCN(CC)c1nc2scc(C(C)C)c2c(=O)o1 | 6.4 | > 50 | 
29 | O=c1oc(Nc2ccccc2)nc2sc3c(c12)CCN(Cc1ccccc1)C3 | > 50 | 0.94 | 
30 | CCN(CC)c1nc2sc3c(c2c(=O)o1)CCCCC3 | 6 | > 50 | 
31 | CN(Cc1ccccc1)c1nc2sc3c(c2c(=O)o1)CCN(Cc1ccccc1)C3 | > 50 | 0.84 | 
32 | CCN(CC)c1nc2sc(C)c(C)c2c(=O)o1 | 4.3 | > 50 | 
33 | CC(C)Nc1nc2sc3c(c2c(=O)o1)CCCC3 | > 50 | > 50 | 
34 | CN(c1nc2sc3c(c2c(=O)o1)CCCC3)C1CCCCC1 | 18 | > 50 | 
35 | CCN(CC)c1nc2sc3c(c2c(=O)o1)CCN(Cc1ccccc1)C3 | > 50 | 2.08 | 
36 | CN(C)c1nc2sc3c(c2c(=O)o1)CCCC3 | 2.15 | > 50 | 
